{"source": "patent US12708632B2", "about": "(Jazz Pharmaceuticals Research UK Limited, priority 2020, dated 2026)", "tested_on": "seizures associated with Cortical Dysplasia and Cortical Brain Malformation", "assay": "Open label, expanded-access program of botanically derived purified CBD: caregiver-diary seizure frequency", "type": "in vivo, human patients", "set-up": "reduction in atonic seizures over the treatment period / reduction in tonic seizures over the treatment period / reduction in focal seizures without impairment over the treatment period: concentration or dose not given beside the values", "conditions": "for Seizure frequency: Focal with impairment: baseline 49.0; for Seizure frequency: Atonic: baseline 80.0", "method": "Subjects were required to be on one or more AEDs at stable doses for a minimum of two weeks prior to baseline and to have stable vagus nerve stimulation (VNS) settings and ketogenic diet ratios for a minimum of four weeks prior to baseline.\nDose was then increased weekly by 5 mg/kg/day to a goal of 20 to 25 mg/kg/day.\nA maximum dose of 50 mg/kg/day could be utilised for patients who were tolerating the medication but had not achieved seizure control; these patients had further weekly titration by 5 mg/kg/day.\nModifications were made to concomitant AEDs as per clinical indication.\nSeizure frequency, intensity, and duration were recorded by caregivers in a diary during a baseline period of at least 28 days. Changes in seizure frequency relative to baseline were calculated after at least 2 weeks and at defined timepoints of treatment.\nPatients may be defined as responders if they had more than 50% reduction in seizure frequency compared to baseline. the percent change in seizure frequency was calculated as follows: […]\nThe percent change of seizure frequency may be calculated for any time interval where seizure number has been recorded. For the purpose of this example the percent change of seizure frequency for the end of the treatment period was calculated as follows: […]", "note": "Entries after “also recorded” stand apart in the source; their conditions may differ."}
{"smiles": "C=C(C)[C@@H]1CCC(C)=C[C@H]1c1c(O)cc(CCCCC)cc1O", "note": "[CBD, cannabidiol]", "values": [{"measurement": "Seizure frequency: Tonic", "setting": "Patient 4, 96 weeks, CBD 50.0 mg/kg/day, baseline 196.0", "value": 22.0, "unit": "seizures per week"}, {"measurement": "Seizure frequency: Tonic", "setting": "Patient 4, 120 weeks, CBD 42.6 mg/kg/day, baseline 196.0", "value": 16.0, "unit": "seizures per week"}, {"measurement": "Seizure frequency: Tonic", "setting": "Patient 4, 132 weeks, CBD 49.8 mg/kg/day, baseline 196.0", "value": 36.0, "unit": "seizures per week"}, {"measurement": "reduction in tonic seizures over the treatment period", "setting": "Patient 4, treated for 132 weeks, vs baseline", "value": 81.6, "unit": "%"}, {"measurement": "Seizure frequency: Tonic", "setting": "Patient 5, 4 weeks, CBD 20.0 mg/kg/day, baseline 4.0", "value": 3.2, "unit": "seizures per week"}, {"measurement": "Seizure frequency: Tonic", "setting": "Patient 5, 8 weeks, CBD 35.0 mg/kg/day, baseline 4.0", "value": 11.0, "unit": "seizures per week"}, {"measurement": "Seizure frequency: Tonic", "setting": "Patient 5, 12 weeks, CBD 50.0 mg/kg/day, baseline 4.0", "value": 1.0, "unit": "seizures per week"}, {"measurement": "Seizure frequency: Tonic", "setting": "Patient 5, 24 weeks, CBD 50.0 mg/kg/day, baseline 4.0", "value": 0.0, "unit": "seizures per week"}, {"measurement": "Seizure frequency: Tonic", "setting": "Patient 5, 36 weeks, CBD 47.0 mg/kg/day, baseline 4.0", "value": 0.0, "unit": "seizures per week"}, {"measurement": "Seizure frequency: Tonic", "setting": "Patient 5, 48 weeks, CBD 46.0 mg/kg/day, baseline 4.0", "value": 1.0, "unit": "seizures per week"}, {"measurement": "Seizure frequency: Tonic", "setting": "Patient 5, 60 weeks, CBD 49.0 mg/kg/day, baseline 4.0", "value": 1.0, "unit": "seizures per week"}, {"measurement": "Seizure frequency: Tonic", "setting": "Patient 5, 72 weeks, CBD 50.0 mg/kg/day, baseline 4.0", "value": 0.0, "unit": "seizures per week"}, {"measurement": "Seizure frequency: Tonic", "setting": "Patient 5, 84 weeks, CBD 50.0 mg/kg/day, baseline 4.0", "value": 0.0, "unit": "seizures per week"}, {"measurement": "Seizure frequency: Tonic", "setting": "Patient 5, 96 weeks, CBD 49.7 mg/kg/day, baseline 4.0", "value": 0.0, "unit": "seizures per week"}, {"measurement": "Seizure frequency: Tonic", "setting": "Patient 5, 108 weeks, CBD 49.7 mg/kg/day, baseline 4.0", "value": 0.0, "unit": "seizures per week"}, {"measurement": "Seizure frequency: Tonic", "setting": "Patient 5, 132 weeks, CBD 49.1 mg/kg/day, baseline 4.0", "value": 0.0, "unit": "seizures per week"}, {"measurement": "Seizure frequency: Tonic", "setting": "Patient 5, 144 weeks, CBD 50.0 mg/kg/day, baseline 4.0", "value": 0.0, "unit": "seizures per week"}, {"measurement": "reduction in tonic seizures over the treatment period", "setting": "Patient 5, treated for 144 weeks, vs baseline", "value": 100, "unit": "%"}, {"measurement": "Seizure frequency: Focal without impairment", "setting": "Patient 6, 4 weeks, CBD 25.0 mg/kg/day, baseline 20.0", "value": 8.0, "unit": "seizures per week"}, {"measurement": "Seizure frequency: Focal without impairment", "setting": "Patient 6, 8 weeks, CBD 25.0 mg/kg/day, baseline 20.0", "value": 0.0, "unit": "seizures per week"}, {"measurement": "Seizure frequency: Focal without impairment", "setting": "Patient 6, 16 weeks, CBD 25.0 mg/kg/day, baseline 20.0", "value": 4.0, "unit": "seizures per week"}, {"measurement": "Seizure frequency: Focal without impairment", "setting": "Patient 6, 24 weeks, CBD 25.0 mg/kg/day, baseline 20.0", "value": 2.0, "unit": "seizures per week"}, {"measurement": "reduction in focal seizures without impairment over the treatment period", "setting": "Patient 6, treated for 24 weeks, vs baseline", "value": 90, "unit": "%"}, {"measurement": "Seizure frequency: Focal with impairment", "setting": "Patient 7, 2 weeks, CBD 10.0 mg/kg/day", "value": 22.0, "unit": "seizures per week"}, {"measurement": "Seizure frequency: Focal without impairment", "setting": "Patient 7, 2 weeks, CBD 10.0 mg/kg/day, baseline 233.0", "value": 182.0, "unit": "seizures per week"}, {"measurement": "Seizure frequency: Focal with impairment", "setting": "Patient 7, 4 weeks, CBD 20.0 mg/kg/day", "value": 26.0, "unit": "seizures per week"}, {"measurement": "Seizure frequency: Focal without impairment", "setting": "Patient 7, 4 weeks, CBD 20.0 mg/kg/day, baseline 233.0", "value": 62.0, "unit": "seizures per week"}, {"measurement": "Seizure frequency: Focal with impairment", "setting": "Patient 7, 8 weeks, CBD 25.0 mg/kg/day", "value": 35.0, "unit": "seizures per week"}, {"measurement": "Seizure frequency: Focal without impairment", "setting": "Patient 7, 8 weeks, CBD 25.0 mg/kg/day, baseline 233.0", "value": 125.0, "unit": "seizures per week"}, {"measurement": "Seizure frequency: Focal with impairment", "setting": "Patient 7, 12 weeks, CBD 25.0 mg/kg/day", "value": 40.0, "unit": "seizures per week"}, {"measurement": "Seizure frequency: Focal without impairment", "setting": "Patient 7, 12 weeks, CBD 25.0 mg/kg/day, baseline 233.0", "value": 112.0, "unit": "seizures per week"}, {"measurement": "Seizure frequency: Focal with impairment", "setting": "Patient 7, 16 weeks, CBD 25.0 mg/kg/day", "value": 66.7, "unit": "seizures per week"}, {"measurement": "Seizure frequency: Focal without impairment", "setting": "Patient 7, 16 weeks, CBD 25.0 mg/kg/day, baseline 233.0", "value": 93.3, "unit": "seizures per week"}, {"measurement": "Seizure frequency: Focal with impairment", "setting": "Patient 7, 24 weeks, CBD 25.0 mg/kg/day", "value": 62.4, "unit": "seizures per week"}, {"measurement": "Seizure frequency: Focal without impairment", "setting": "Patient 7, 24 weeks, CBD 25.0 mg/kg/day, baseline 233.0", "value": 96.8, "unit": "seizures per week"}, {"measurement": "Seizure frequency: Focal with impairment", "setting": "Patient 7, 36 weeks, CBD 20.0 mg/kg/day", "value": 94.8, "unit": "seizures per week"}, {"measurement": "Seizure frequency: Focal without impairment", "setting": "Patient 7, 36 weeks, CBD 20.0 mg/kg/day, baseline 233.0", "value": 39.7, "unit": "seizures per week"}, {"measurement": "Seizure frequency: Focal with impairment", "setting": "Patient 7, 48 weeks, CBD 20.0 mg/kg/day", "value": 62.5, "unit": "seizures per week"}, {"measurement": "Seizure frequency: Focal without impairment", "setting": "Patient 7, 48 weeks, CBD 20.0 mg/kg/day, baseline 233.0", "value": 92.9, "unit": "seizures per week"}, {"measurement": "Seizure frequency: Focal with impairment", "setting": "Patient 7, 60 weeks, CBD 20.0 mg/kg/day", "value": 72.8, "unit": "seizures per week"}, {"measurement": "Seizure frequency: Focal without impairment", "setting": "Patient 7, 60 weeks, CBD 20.0 mg/kg/day, baseline 233.0", "value": 141.2, "unit": "seizures per week"}, {"measurement": "Seizure frequency: Focal with impairment", "setting": "Patient 7, 72 weeks, CBD 20.0 mg/kg/day", "value": 179.7, "unit": "seizures per week"}, {"measurement": "Seizure frequency: Focal without impairment", "setting": "Patient 7, 72 weeks, CBD 20.0 mg/kg/day, baseline 233.0", "value": 139.4, "unit": "seizures per week"}, {"measurement": "reduction in focal seizures without impairment over the treatment period", "setting": "Patient 7, treated for 72 weeks, vs baseline", "value": 40.2, "unit": "%"}, {"measurement": "Seizure frequency: Tonic", "setting": "Patient 8, 4 weeks, CBD 20.0 mg/kg/day, baseline 280.0", "value": 6.0, "unit": "seizures per week"}, {"measurement": "Seizure frequency: Tonic", "setting": "Patient 8, 8 weeks, CBD 25.0 mg/kg/day, baseline 280.0", "value": 5.0, "unit": "seizures per week"}, {"measurement": "Seizure frequency: Atonic", "setting": "Patient 8, 12 weeks, CBD 25.0 mg/kg/day", "value": 12.0, "unit": "seizures per week"}, {"measurement": "Seizure frequency: Tonic", "setting": "Patient 8, 12 weeks, CBD 25.0 mg/kg/day, baseline 280.0", "value": 60.0, "unit": "seizures per week"}, {"measurement": "Seizure frequency: Atonic", "setting": "Patient 8, 16 weeks, CBD 25.0 mg/kg/day", "value": 24.0, "unit": "seizures per week"}, {"measurement": "Seizure frequency: Tonic", "setting": "Patient 8, 16 weeks, CBD 25.0 mg/kg/day, baseline 280.0", "value": 56.0, "unit": "seizures per week"}, {"measurement": "Seizure frequency: Atonic", "setting": "Patient 8, 24 weeks, CBD 25.0 mg/kg/day", "value": 4.0, "unit": "seizures per week"}, {"measurement": "Seizure frequency: Tonic", "setting": "Patient 8, 24 weeks, CBD 25.0 mg/kg/day, baseline 280.0", "value": 32.0, "unit": "seizures per week"}, {"measurement": "Seizure frequency: Atonic", "setting": "Patient 8, 36 weeks, CBD 10.0 mg/kg/day", "value": 4.0, "unit": "seizures per week"}, {"measurement": "Seizure frequency: Tonic", "setting": "Patient 8, 36 weeks, CBD 10.0 mg/kg/day, baseline 280.0", "value": 896.0, "unit": "seizures per week"}, {"measurement": "reduction in atonic seizures over the treatment period", "setting": "Patient 8, treated for 36 weeks, vs baseline", "value": 95.0, "unit": "%"}, {"measurement": "reductions in seizures over period of treatment, overall", "setting": "all patients, atonic, tonic and focal without impairment seizures", "value": "40.2-100.0%"}, {"measurement": "seizure freedom from tonic seizures", "setting": "one patient (patient 5), after 12 months of CBD treatment", "value": "seizure free of tonic seizures; also recorded: completely seizure free"}, {"measurement": "effect on frequency of atonic, tonic and focal without impairment seizures (in words)", "setting": "patients with Cortical Dysplasia and Cortical Brain Malformation", "value": "effective in reducing the frequency; also recorded: significantly reduce the number of seizures; also recorded: significant reduction"}]}
